The target of assay [1] is PI3Kα (Homo sapiens, UniProt P42336, H1047R). The experiment in a line: ADP-Glo IC50 assay. The format is biochemical. The settings on record: class symbols; key not given.
Assay [2] deals with MCF10A. The experiment in a line: MCF10A IC50 assay. Format: cell-based. The settings on record: Homo sapiens, MCF-10A; class symbols; key not given. The procedure, abridged: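 MCF10A cells overexpressing hotspot PIK3CA mutations were seeded at 5,000 per well in supplemented DMEM/F12 and adhered overnight (37 °C, 5% CO₂). Compounds were added acoustically as 12-dose 1:3 series, in duplicate, for 2 hours. Cells were lysed 60 min, then incubated 4 hours at room temperature with CisBio phospho-AKT (Ser473) HTRF antibodies and read on an Envision 2105. IC₅₀ for AKT phosphorylation came from Genedata software and was reported as binned categories.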

4 compounds from patent US20260131009A1, “BIFUNCTIONAL PI3K-ALPHA INHIBITORS AND USES THEREOF” (Relay Therapeutics, Inc., priority 2021, published 2026) can be followed below.

Molecules are shown by their SMILES. A value given as a limit tells only on which side of the number the result lay.

By IC50 is commonly meant the concentration needed to halve the response being measured.

Chain of PI3Kα (P42336 whole entry H1047R): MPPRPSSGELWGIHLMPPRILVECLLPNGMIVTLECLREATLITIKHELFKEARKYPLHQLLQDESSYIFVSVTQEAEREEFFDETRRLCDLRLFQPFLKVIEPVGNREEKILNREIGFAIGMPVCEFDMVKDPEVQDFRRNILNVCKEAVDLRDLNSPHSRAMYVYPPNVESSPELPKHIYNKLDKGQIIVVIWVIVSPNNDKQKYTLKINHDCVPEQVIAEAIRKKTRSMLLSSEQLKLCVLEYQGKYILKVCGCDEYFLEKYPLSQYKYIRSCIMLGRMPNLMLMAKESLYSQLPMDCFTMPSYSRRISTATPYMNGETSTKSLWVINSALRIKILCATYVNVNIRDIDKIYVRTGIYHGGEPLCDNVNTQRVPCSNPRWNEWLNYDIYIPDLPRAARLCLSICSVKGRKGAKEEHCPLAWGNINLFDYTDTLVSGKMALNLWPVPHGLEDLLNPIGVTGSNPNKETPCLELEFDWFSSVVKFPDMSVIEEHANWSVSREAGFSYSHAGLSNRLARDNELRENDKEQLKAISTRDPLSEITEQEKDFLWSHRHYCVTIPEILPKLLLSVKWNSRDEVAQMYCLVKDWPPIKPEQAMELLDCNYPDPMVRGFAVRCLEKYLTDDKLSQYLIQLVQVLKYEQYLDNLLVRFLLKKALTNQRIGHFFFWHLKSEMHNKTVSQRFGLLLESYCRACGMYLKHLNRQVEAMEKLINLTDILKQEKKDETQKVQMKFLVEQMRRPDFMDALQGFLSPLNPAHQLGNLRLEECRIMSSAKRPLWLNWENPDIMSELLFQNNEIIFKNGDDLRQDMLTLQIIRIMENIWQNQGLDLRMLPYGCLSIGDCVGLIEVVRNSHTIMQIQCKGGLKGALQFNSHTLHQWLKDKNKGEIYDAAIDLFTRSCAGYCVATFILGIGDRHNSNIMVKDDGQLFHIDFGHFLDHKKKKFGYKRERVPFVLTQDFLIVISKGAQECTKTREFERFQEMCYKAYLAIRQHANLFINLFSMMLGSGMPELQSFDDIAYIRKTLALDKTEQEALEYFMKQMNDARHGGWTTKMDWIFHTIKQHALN
Chain of PI3Kα (P27986 whole entry partner): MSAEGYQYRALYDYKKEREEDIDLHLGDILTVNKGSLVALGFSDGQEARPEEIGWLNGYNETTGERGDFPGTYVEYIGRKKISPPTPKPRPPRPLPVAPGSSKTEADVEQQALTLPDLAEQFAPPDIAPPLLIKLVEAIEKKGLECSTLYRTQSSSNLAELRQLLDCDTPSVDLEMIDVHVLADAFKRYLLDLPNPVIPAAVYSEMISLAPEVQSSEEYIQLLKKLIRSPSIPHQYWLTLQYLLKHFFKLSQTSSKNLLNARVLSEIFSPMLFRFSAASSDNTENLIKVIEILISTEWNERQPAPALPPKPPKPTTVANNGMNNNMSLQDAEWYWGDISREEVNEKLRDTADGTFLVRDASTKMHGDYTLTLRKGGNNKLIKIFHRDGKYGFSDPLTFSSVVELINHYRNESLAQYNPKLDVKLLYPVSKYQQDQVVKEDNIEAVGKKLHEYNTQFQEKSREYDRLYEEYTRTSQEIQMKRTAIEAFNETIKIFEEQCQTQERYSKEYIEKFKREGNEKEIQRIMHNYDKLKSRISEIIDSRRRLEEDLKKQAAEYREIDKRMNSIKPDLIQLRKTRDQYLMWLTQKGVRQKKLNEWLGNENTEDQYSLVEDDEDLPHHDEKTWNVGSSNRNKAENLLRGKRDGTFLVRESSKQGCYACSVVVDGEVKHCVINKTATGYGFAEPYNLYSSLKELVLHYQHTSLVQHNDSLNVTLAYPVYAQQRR

Take `Cc1ccccc1Nc1ncc(C(=O)NCCCCCCCCCC(=O)NCc2ccc3c(c2)CN(C2CCC(=O)NC2=O)C3=O)cc1NC(=O)c1csc2ccccc12` (centres unmarked) [Example I-3]: the concentration for half-maximal inhibition (IC50) was 0.1 to 0.5 µM in assay [1] and 10 to 36 µM in assay [2].
The matching figures for `Cc1ccccc1Nc1ncc(C(=O)NCCCCCCCCCC(=O)N[C@H](C(=O)N2C[C@H](O)C[C@H]2C(=O)NCc2ccc(-c3scnc3C)cc2)C(C)(C)C)cc1NC(=O)c1csc2ccccc12` [Example I-10]: 0.1 to 0.5 µM and 10 to 36 µM.
`Cc1cc(Br)c2oc(N3CCN(C(=O)CCCCCCCCCNC(=O)c4cnc(Nc5ccccc5C)c(NC(=O)c5csc6ccccc56)c4)CC3)cc(=O)c2c1` [Example I-82]: the IC50 lay in the range of 0.1 to 0.5 µM in assay [1] and 10 to 36 µM in assay [2].
The matching figures for `Cc1ccccc1Nc1ncc(C(=O)NCCCCNc2ccc3c(c2)C(=O)N(C2CCC(=O)NC2=O)C3=O)cc1NC(=O)c1csc2ccccc12` (centres unmarked) [Example I-54]: below 0.1 µM and 10 to 36 µM.
